The IC50 is the point on the concentration scale where inhibition reaches its midpoint.

The assay is described as follows: Inhibition of FTase.

With `N#Cc1ccc(COCc2cncn2Cc2ccc(C#N)cc2-c2cccc3ccccc23)cc1`, the IC50 came to 0.96 nM.

For the compound `N#Cc1ccc(Cn2cncc2Cn2ccc3cc(-c4cccc5ccccc45)c(C#N)cc32)cc1`, the IC50 turned out to be 0.15 nM.

`CCOc1cccc(-c2cc(C#N)ccc2CNCc2cncn2Cc2ccc(C#N)cc2)c1` displayed an IC50 of 0.014 nM.

The compound `CS(=O)(=O)Cn1cncc1COCc1ccc(C#N)cc1-c1cccc(Cl)c1` gave an IC50 of 96 nM.

Compound `N#Cc1ccc(Cn2cncc2COCc2ccc(C#N)cc2-c2cccc(OC(F)(F)F)c2)cc1` returned a half-maximal inhibitory concentration (IC50) of 0.49 nM.

Take `Cn1cncc1C(O)(c1ccc(Cl)cc1)c1ccc2c(c1)n(Cc1cccc(Cl)c1)c(=O)n2C` (configuration not stated): the IC50 is 150 nM.

Compound `O=C(Nc1nncs1)C1CN(C2c3ccc(Cl)cc3CCc3cc(Br)cnc32)CCN1C(=O)NC1CCCCC1` (configuration not stated) gave an IC50 of 490 nM.

As to `Cc1ccc(CNC(=O)C2CN(C3c4ccc(Cl)cc4CCc4cc(Br)cnc43)CCN2C(=O)NC2CCCCC2)cn1` (configuration not stated), the IC50 stood at 61 nM. This IC50 is about 8-fold lower than that of the compound before.

As to `CCOc1cccc(-n2c(=O)n(C)c3ccc(C(O)(c4ccc(C#N)cc4)c4cncn4C)cc32)c1` (configuration not stated), the IC50 was determined as 0.5 nM.

With `C[n+]1cccc(NC(=O)C2CN(C3c4ccc(Cl)cc4CCc4cc(Br)cnc43)CCN2C(=O)NC2CC2)c1` (configuration not stated), the IC50 was 51 nM.

Take `Cc1ccccc1-c1cc(C(OCc2cccc(C(F)(F)F)c2)c2cncn2C)ccc1C#N` (configuration not stated): it took 29 nM to reach half-maximal inhibition (IC50). Against the preceding compound, the IC50 is about 1.8-fold lower.

The compound `CCOc1cccc(-c2cc(C#N)ccc2C#CC(O)(c2ccc(C#N)cc2)c2cncn2C)c1` (configuration not stated) displayed a half-maximal inhibitory concentration (IC50) of 0.73 nM.

The compound `N#Cc1ccc(OCc2cn(Cc3ccc(C#N)c(-c4ccc5ccccc5c4)c3)cn2)cc1` returned an IC50 of 0.32 nM.

Turning to `CCOc1cccc(-c2cc(C#N)ccc2COCc2cncn2Cc2ccc(C#N)cc2)c1`, the IC50 came to 0.27 nM.

For the compound `Cn1cncc1C(O)(c1ccc(C#N)cc1)c1ccc2c(c1)n(-c1cccc(Cl)c1)c(=O)n2C` (configuration not stated), 1.4 nM corresponded to half-maximal inhibition (IC50).

On to `Cn1cncc1C(OCc1ccc(C#N)cc1NS(=O)(=O)c1cccs1)c1ccc(C#N)cc1` (configuration not stated), for which half-maximal inhibition (IC50) required 0.88 nM.

`Cn1cncc1C(OCc1ccc(C#N)cc1-c1ccc2c(c1)OC(F)(F)O2)c1ccc(C#N)cc1` (configuration not stated) had an IC50 of 1.1 nM.

Compound `Cn1c(=O)cc(-c2cccc(Cl)c2)c2cc(Cn3cncc3Cn3ccc(C(=O)N4CCOCC4)c3)ccc21` showed an IC50 of 1000 nM. This IC50 is about 910-fold higher than that of the compound before.

Regarding `CCCCC(=O)N1CCN(C2c3ccc(Cl)cc3CCc3cc(Br)ccc32)CC1C(=O)NCc1ccc[n+]([O-])c1` (configuration not stated), the IC50 worked out at 1800 nM.

Take `COc1cccc(-c2cc(N)ccc2COC(c2ccc(C#N)cc2)c2cncn2C)c1` (configuration not stated): the IC50 turned out to be 40 nM.

Consider `COCc1cccc(-c2cc(C#N)ccc2COC(c2ccc(C#N)cc2)c2cncn2C)c1` (configuration not stated), for which half-maximal inhibition (IC50) was put at 0.19 nM.

For `Cn1cncc1C(OCc1ccc(C#N)cc1)c1ccc(C#N)c(-c2cc3ccccc3s2)c1` (configuration not stated), the midpoint of inhibition, the IC50, lay at 160 nM.

Source of the values: ChEMBL document CHEMBL1140607, “Pharmacophore mapping of diverse classes of farnesyltransferase inhibitors” (Bioorg Med Chem Lett, 2007).
